# Laboratory results: US6849645B2, “Method of increased bioavailability of nutrients and pharmaceutical preparations with tetrahydropiperine and its analogues and derivatives” (priority 2000, dated 2005)
# “Also recorded” adds a separate entry of the source.
# Key:
# [1] = In vitro DPPH radical scavenging method (THC with or without THP); assay type: biochemical
# Description: The bioenhancing potential of THP on the free-radical scavenging properties of topically applied THC was evaluated. In this in vitro DPPH radical scavenging method, the ability of an anti-oxidant to bind and inactivate the 1,1 diphenyl-2-picrylhydrazyl radical, or DPPH, was measured. DPPH is considered an example of a very stable free radical. The control sample contained 0.01% of THC while active samples contained 0.01% of THC with THP concentrations ranging from 0.1%-0.0001%. Additionally, controls containing various concentrations of THP alone were also tested for DPPH binding.
# [2] = system: tobacco cut worm, Spodoptera litura F.; assay: whole plant or invertebrate; conditions: 48 hours
# Description: The tetrahydropiperine was tested against tobacco cut worm, Spodoptera litura F. to determine its possible increased kill rate when used with Fenvalerate—a synthetic pyrethroid.
# • a. Preparation of test solution—0.5 g of the test product was dissolved in 1 ml of Ethanol and made up to 100 ml in standard volumetric flask using suitable emulsifier. This solution contains 5000 ppm a.i. (0.5 percent). Further, serial dilution was made to get 0.25, 0.125 and 0.0625% of the test product. To each of these test solutions, Fenvalerate was added to get 250 ppm of Fenvalerate a.i. in the final volume. For comparison 0.5 percent of Tetrahydropiperine, Ethanol 1.0 percent solution and 250 ppm a.i. of Fenvalerate was used. • b. Bioassay—Laboratory reared 7 day old larvae of tobacco cut worm, Spodoptera litura were used in the experiment. After a series of preliminary tests the concentrations chosen for the experiment were 0.5, 0.25, 0.125 and 0.0625 percent tetrahydropiperine. Fresh castor leaves were dipped for 30 seconds in above concentrations of test and standard compounds and blank solutions. After proper drying, the treated leaves were transferred to plastic containers. To each container 5 larvae were released. This was repeated four times so as to have 20 larvae for each concentration. Larvae in control set were fed with leaves dipped in water. Observations were recorded for larval mortality after 48 hours of exposure. Results
# [3] = 48 hour skin patch test for irritation in humans; assay type: in vivo, human
# Description: In another aspect of the present invention, a study was conducted to determine whether a topical composition containing THP (98% purity), at a level of 0.01% and 0.1% by weight, which is preferred topical dose range for the compound, would produce symptoms of topical irritation. A skin patch test using THP in a petrolatum vehicle was conducted on 50 healthy volunteers for 48 hr with reading of the results after 48 hr and 72 hr. […] The irritation score was reported by the supervising physician, a practicing dermatologist, as 0. […] Based on previous experience with the parent compound, THP should not irritate the stomach mucosa at dose level of up to 50 mg per os in an adult healthy volunteer.
# The 48 hour Repeat Insult Patch Test was used to evaluate skin irritation potential of the test compound.
# 50 Male or female subjects aged between 18 and 87 years participated in the study. 5 male and 41 female subjects completed the study. The subjects were in good health and using no medications from 30 days prior to the commencement of the study.
# The test material was applied occlusively, 0.1% w/w diluted in petrolatum. 0.2 g or 0.2 cc of the test material was dispensed into the skin of the upper back. Paper tape such as 3M Micropore™ or Kendall Tenderskin™ was used for fixation after preparation of the surrounding skin with an adhesion enhancer such as Mastitol™. The subject was instructed to avoid exposure to water or to direct sunlight during the 48 hour observation period. The tape was removed at the test facility at the end of the exposure period and evaluated by trained personnel under the supervision of the principal investigator.
# Reactions were scored based on the appearance of erythema or edema immediately following removal of the patch and again at 24 hours following removal. Subjects were instructed to report any delayed reactions occurring after the final reading.
# [4] = Primary skin irritation potential, Draize's method; assay type: in vivo, New Zealand White rabbits
# Description: The study was designed to determine the primary skin irritation potential on New Zealand White rabbits following the guidelines provided by Gaitonde Committee, CIB, New Delhi, India
# New Zealand White, healthy, adult male and female rabbits, each group comprising of 3 randomly selected animals of each sex.
# 0.5 ml of the test substance was applied to dehaired intact and abraded skin sites of each test animal. Care was taken to note that the abrasions penetrated the Stratum corneum, but not the dermis. A gauze patch was secured over each treated area using tape. The patch and unabsorbed test substance were removed after 24 hours. Each site of application was carefully observed and the reaction evaluated according to Draize's method at 24 and 72 hours.
# [5] = Solubility (specification of THP); assay type: physicochemical
# [6] = Franz diffusion cell, in vitro transdermal permeation of Forskolin with or without tetrahydropiperine; assay type: in vitro ADME, rat; conditions: for Increase in release (% of Forskolin): with THP vs control
# Description: In vitro permeation studies of Forskholin, a diterpenoid compound which has various therapeutic effects (Bronchodilation—used in Asthma, prevents platelet aggregation, anti hypertensive, anti glaucoma and anti-inflammatory) was carried out. Fabricated Franz diffusion cells of capacity 67 and 69 ml were used for the study. Freshly excised rat abdominal skin was used for the permeation studies.
# Solutions Used in the Study • a) 2.5% Forskolin in methanol. • b) 0.05% Tetrahydropiperine in 2.5% Forskolin in methanol. • c) 0.1% Tetrahydropiperine in 2.5% Forskolin in methanol. Procedure
# Freshly excised rat abdominal […] was mounted on the Franz diffusion Cell, the outer layer of the skin facing the donor compartment. The receptor fluid was maintained at 35° C. using a thermostatic magnetic stirrer.
# The study was conducted by replacing the medium in the receptor compartment with methanol instead of phosphate buffer. In both the receptor and donor compartment methanol was used as the medium in the permeation studies.
# (§1) In the donor compartment 2 ml methanol containing 50 mg of Forskolin and tetrahydropiperine (5% of Forskolin conc.) was taken. Receptor compartment consisted of 69 ml of methanol maintained at 35° C. Permeation study was carried out for a period of 1 hr. Samples were withdrawn at 15, 30 and 60 minutes intervals and the amount of Forskholin present was analyzed by HPLC.
# as §1, with “Forskholin” for “Forskolin and tetrahydropiperine (5% of Forskolin conc.)”, “65” for “69”, “hour.” for “hr.”
# [7] = THP 0.01% and 0.1% by weight in petrolatum, 48 hr patch, read after 48 hr and 72 hr
compound,measurement,setting,value
"O=C(CCCCc1ccc2c(c1)OCO2)N1CCCCC1 [Tetrahydropiperine, 1-[5-(1,3-Benzodioxol-5 yl)-1-oxo-pentanoyl]-Piperidine]",enhancement of the antioxidant properties of THC as compared to THC alone,[1]; 0.01% THC with THP 0.1%-0.0001%,up to 30%
same,THC bioenhancing activity,[1]; 0.01% THC with THP at highest dilution of 0.0001%,still displayed some beneficial THC bioenhancing activity
same,anti-oxidant properties (DPPH binding),"[1]; THP alone, various concentrations",did not show any significant anti-oxidant properties
same,PERCENT MORTALITY (Mean of 4 replications),[2]; Tetrahydropiperine 0.0625% + 250 ppm a.i. Fenvalerate,50%
same,PERCENT MORTALITY (Mean of 4 replications),"[2]; Tetrahydropiperine 0.0625% + 250 ppm a.i. Fenvalerate, listed as tetrahydropiperine",did not enhance the activity
same,PERCENT MORTALITY (Mean of 4 replications),[2]; Tetrahydropiperine 0.125% + 250 ppm a.i. Fenvalerate,65%
same,PERCENT MORTALITY (Mean of 4 replications),[2]; Tetrahydropiperine 0.5% + 250 ppm a.i. Fenvalerate,100%
same,PERCENT MORTALITY (Mean of 4 replications),[2]; Tetrahydropiperine 0.5% alone,0%
same,PERCENT MORTALITY (Mean of 4 replications),"[2]; Tetrahydropiperine 0.5% alone, listed as tetrahydropiperine",did not show any activity
same,PERCENT MORTALITY (Mean of 4 replications),[2]; Tetrahydropiperine […] + 250 ppm a.i. Fenvalerate,85%
same,"skin reaction (erythema, edema, primary contact irritation)","[3]; 0.1% w/w in petrolatum, occlusive, 48 hours exposure",No erythema or edema reactions; also recorded: appears not to produce primary (contact) irritation
same,irritation score,[3]; [7],0
same,skin irritation,[3]; [7],Neither dose caused skin irritation
same,"skin reaction (erythema, edema, irritation)","[4]; 0.5 ml on intact and abraded skin sites, patch 24 hours, evaluated at 24 and 72 hours",No erythema or edema; also recorded: did not cause any irritation
same,primary skin irritation score,"[4]; intact and abraded skin, Draize's method, 24 and 72 hours",zero
same,Solubility,[5]; chloroform,Soluble
same,Solubility,[5]; methanol,Soluble
same,Solubility,[5]; water,insoluble
same,permeation of Forskolin,[6]; Tetrahydropiperine 5% of Forskolin concentration,enhanced
same,permeation of Forskolin,[6]; tetrahydropiperine 2% of Forskolin concentration,enhanced permeation was not observed
same,Increase in release (% of Forskolin),[6]; 15 min,28.12%
same,Increase in release (% of Forskolin),[6]; 30 min,39.25%
same,Increase in release (% of Forskolin),[6]; 60 min,5.09%
